# Test results from patent publication US12324769B1, “Double-network versatile hydrogel with antibacterial and drug sequential release capabilities” (Eye Institute of Shandong First Medical University, priority 2023, dated 2025).
# Key:
# [1] = cumulative release of PDRN and verteporfin in PBS at 37° C.; type: physicochemical; settings: from SQPV hydrogel
# Raw264.7 cells = assay: macrophage cytoskeleton staining after LPS/IFN-γ induced M1 polarization; type: cell-based; settings: M1-induced Raw264.7, cytoskeleton staining
# Protocol: The anti-inflammatory properties of SQPV hydrogel prepared in Embodiment 1, SQP hydrogel prepared in Comparative embodiment 1 and SQ hydrogel prepared in Comparative embodiment 2 are investigated. […] Therefore, regulating inflammatory response has become the key focus of developing ideal corneal substitutes. […] In this present disclosure, Raw264.7 cells are inoculated on a 6-well plate for 24 h, and then stimulated with LPS (100 nanograms per milliliter (ng/mL)) and interferon gamma (IFN-γ) (20 ng/mL) for 24 h to induce M1 polarization. Then, fresh hydrogel leaching solution is added, and after 24 h, the cytoskeleton is stained with CLSM to observe the morphological changes of macrophages.
substance,measurement,setting,value
polydeoxyribonucleotide [PDRN],time until almost all encapsulated PDRN is released,[1],≤ 7 days
same,macrophage polarization,Raw264.7 cells,promotes macrophages to have M1 to M2 transformation
verteporfin [reference compound],cumulative release of verteporfin,[1]; after 28 days of incubation,72%
